Measurements taken from US6689567B1, “Method for assaying the function of FlaA1 and WbpM” (priority 1999, dated 2004).
“And” between values parts separate entries of the source, which are not always exact repeats. Identical values can stand only once.

What was measured:
[1] = target: T1, FlaA1 (Helicobacter pylori, UniProt O25511); test: Substrate specificity of FlaA1 (catalysis with related sugar-nucleotides); type: biochemical
T1 construct: hexahistidine tag (N); made in house; host or cells: E. coli BL21(DE3)pLysS (pET23 derivative)
T1 sequence (O25511 whole entry): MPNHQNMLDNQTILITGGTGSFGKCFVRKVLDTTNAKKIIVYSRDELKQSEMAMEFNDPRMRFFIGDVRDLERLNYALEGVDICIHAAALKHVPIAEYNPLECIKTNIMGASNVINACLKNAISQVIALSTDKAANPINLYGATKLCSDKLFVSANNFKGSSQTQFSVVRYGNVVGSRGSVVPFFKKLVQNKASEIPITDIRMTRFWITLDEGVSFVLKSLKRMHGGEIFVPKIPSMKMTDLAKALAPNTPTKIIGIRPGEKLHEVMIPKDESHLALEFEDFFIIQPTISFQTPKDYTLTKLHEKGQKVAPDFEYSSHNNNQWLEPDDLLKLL

[2] = target: T1, FlaA1; test: DMAB assay: enzymatic conversion of UDP-GlcNAc and UDP-GalNAc by FlaA1; type: biochemical; settings: incubation with FlaA1, 37° C., 20 mM Tris pH 7, 1 mM NAD+
Protocol: Reactions were performed with a total reaction volume of 35 μl at 37° C. in 20 mM Tris pH 7 in the presence of 1.5 mM substrate and 1 mM NAD^+. The reactions were stopped by acid hydrolysis of the UDP moiety of the substrate. For this purpose, the samples were acidified to pH 2 by addition of 7 μl of HCl 1 N, boiled for 6 min, and neutralised by addition of 7 μl of NaOH 1 N. The spectrophotometric quantification of GalNAc and GlcNAc using DMAB was performed as described by Creuzenet et al. 2000. Briefly summarized, 100 μl of 0.2 M sodium tetraborate pH 9.1 were added to 50 μl of quenched and neutralised enzymatic reactions and boiled immediately for 3 min. 40 μl of this mixture were transferred to a microtitration plate and 200 μl of DMAB reagent (1% in glacial acetic acid/HCl 99/1 v/v) were added. After incubation for 30 min at 37° C., the OD595 nm was recorded using a microplate reader. The assay was done in duplicate for each reaction tested. Standard curves were prepared using UDP-GlcNAc and UDP-GalNAc that were subjected to acid hydrolysis in the same conditions as described above.

[3] = target: T1, FlaA1; test: Capillary electrophoresis analysis of reaction products and kinetic parameters of FlaA1; type: biochemical; settings: for reaction products identified by capillary electrophoresis: sugar-nucleotide used as substrate of FlaA1
Protocol: The same reactions as above were prepared for capillary analysis using varying amounts of enzyme (440 or 54 ng) and 1 mM NAD^+ or not. The reaction mix was incubated for different reaction times. The specific conditions are indicated above. After incubation at 37° C. for the required amount of time, the reactions were quenched by boiling the sample for 6 min. Time course studies were performed with final sugar-nucleotide concentrations of 0.1 and 1.5 mM without NAD^+. Samples were quenched every 15 minutes for 2 h. […] Reactions were also performed using varying buffers such as 20 mM sodium phosphate or bis-tris-propane at pH 7, or 20 mM sodium acetate pH 6.5 and processed for CE analysis as described above.
Capillary electrophoresis (CE) analysis were performed using a P/ACE 5000 system (Beckman, Fullerton, Calif.) with UV detection as described before (Creuzenet et al. 2000). Briefly summarised, the running buffer was 25 mM sodium tetraborate pH 9.4. The capillary was bare silica 75 μm×57 cm, with a detector at 50 cm. The capillary was conditioned before each run by washing with 0.2 M NaOH for 2 min, water for 2 min, and running buffer for 2 min. Samples were introduced by pressure injection for 4 s and the separation was performed at 22 kV. Peak integration was done using the Beckman P/ACE Station software. Kinetic parameters were calculated by linear regression from Eadie-Hofstee plots.
The same reactions as above were prepared for capillary electrophoresis analysis and were quenched by boiling for 6 minutes without prior acidification. Capillary electrophoresis (CE) analysis was performed as described earlier (Creuzenet et al. 2000).

[4] = target: C4 epimerase WbpP (Pseudomonas aeruginosa, UniProt Q8KN66); settings: Creuzenet et al. 2000; cited from earlier work
Sequence of C4 epimerase WbpP (Q8KN66 whole entry): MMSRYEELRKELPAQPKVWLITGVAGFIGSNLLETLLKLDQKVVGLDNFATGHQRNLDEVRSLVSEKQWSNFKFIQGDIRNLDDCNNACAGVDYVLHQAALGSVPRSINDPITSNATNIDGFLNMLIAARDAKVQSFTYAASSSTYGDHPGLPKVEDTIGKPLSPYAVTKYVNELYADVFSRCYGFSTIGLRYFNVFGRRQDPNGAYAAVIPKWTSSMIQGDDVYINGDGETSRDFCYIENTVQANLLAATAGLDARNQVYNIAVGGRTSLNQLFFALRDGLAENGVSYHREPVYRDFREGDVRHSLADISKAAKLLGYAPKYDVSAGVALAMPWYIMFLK

Row | Compound | catalysis by FlaA1 (substrate specificity) [1] | substrate conversion (decrease in OD595nm, DMAB assay) [2] | reaction products identified by capillary electrophoresis [3] | Km [4] | kcat ([3]; pH 7, 37° C., 12.8 pmol enzyme) | Km ([3]; pH 7, 37° C., 440 ng fresh enzyme, no NAD+, 20 min) | Vmax ([3]; pH 7, 37° C., 440 ng fresh enzyme, no NAD+, 20 min, total substrate conversion)
1 | Nc1nc2c(ncn2[C@@H]2O[C@H](COP(=O)(O)OP(=O)(O)O[C@H]3O[C@H](CO)[C@@H](O)[C@H](O)[C@@H]3O)[C@@H](O)[C@H]2O)c(=O)[nH]1 [GDP-mannose] | Absence of catalysis | – | – | – | – | – | –
2 | CC(=O)N[C@H]1[C@@H](OP(=O)(O)OP(=O)(O)OC[C@H]2O[C@@H](n3ccc(=O)[nH]c3=O)[C@H](O)[C@@H]2O)O[C@H](CO)[C@H](O)[C@@H]1O [UDP-GalNAc, UDP-N-acetylgalactosamine] | can not proceed to catalysis | < 5% | no reaction products could be identified | – | – | – | –
3 | CC(=O)N[C@H]1[C@@H](OP(=O)(O)OP(=O)(O)OC[C@H]2O[C@@H](n3ccc(=O)[nH]c3=O)[C@H](O)[C@@H]2O)O[C@H](CO)[C@@H](O)[C@@H]1O [UDP-GlcNAc, UDP-N-acetylglucosamine] | – | ≤ 55% | two reaction products were identified | 220 µM | 0.085 s⁻¹ and 0.085 ± 0.0067 s⁻¹ | 159 µM | 0.065 nmol/min and 0.065 ± 0.006 nmol/min
4 | Cc1cn([C@H]2C[C@H](O)[C@@H](COP(=O)(O)OP(=O)(O)OC3O[C@H](CO)[C@@H](O)[C@H](O)[C@H]3O)O2)c(=O)[nH]c1=O (stereo partly drawn) [dTDP-D-glucose] | Absence of catalysis | – | – | – | – | – | –
